Measurements reported in US20250213500A1, “PHARMACEUTICAL COMPOSITION FOR IMPROVING LIFE QUALITY OF ELDERLY PEOPLE ON BASIS OF VITAMIN K2, PREPARATION METHOD THEREFOR AND USE THEREOF” (priority 2022, published 2025).

Test system: tumor cells
Test: Tumor inhibition in mice subcutaneously inoculated with tumor cells
Type: in vivo
Details: 10 mg/kg once daily for 15 days; tumor weight vs saline group
Protocol: A total of 140 mice (equal number of males and females), approximately 3 months old, with a weight range of 15.41-18.47 g, were selected. Mice were subcutaneously inoculated with tumor cells, and their blood samples were drawn 24 hours later to test tumor markers and confirm the success of the mouse model establishment. A total of 126 mice confirmed with cancer (equal number of males and females) were selected and randomly divided into 6 groups, with 21 mice in each group (roughly equal number of males and females). These 6 groups were designated as Experimental Group 1, Experimental Group 2, Experimental Group 3, Experimental Group 4, Experimental Group 5, and Experimental Group 6. […] Tumor inhibition rate was calculated as follows: Tumor Inhibition Rate=(Average Tumor Weight in Control Group−Average Tumor Weight in Experimental Group)/Average Tumor Weight in Control Group.

SMILES | Tumor Inhibition Rate
CC(C)=CCC/C(C)=C/CC/C(C)=C/CC/C(C)=C/CC/C(C)=C/CC/C(C)=C/CC/C(C)=C/CC1=C(C)C(=O)c2ccccc2C1=O [MK-7, vitamin K2 (MK-7)] | 35.67%
CCCc1nn(C)c2c(=O)[nH]c(-c3cc(S(=O)(=O)N4CCN(C)CC4)ccc3OCC)nc12 [sildenafil] | 40.55%
